Reference: patent publication US20260250318A1, “COMPOSITIONS AND METHODS FOR CROSSING THE BLOOD BRAIN BARRIER” (VOYAGER THERAPEUTICS, INC., priority 2022, published 2026)

System: brains, heart, liver, muscle, and DRG of the NHPs
Test: Maturation of TTM-001 and TTM-002 capsids, NGS enrichment in NHP tissues
Type: in vivo
Description: This Example describes maturation of the AAV9 capsid variants, TTM-001 (SEQ ID NO: 981 (amino acid) and 983 (DNA), comprising SEQ ID NO: 941 (encoded by SEQ ID NO: 942)) and TTM-002 (SEQ ID NO: 982 (amino acid) and 984 (DNA), comprising SEQ ID NO: […] (encoded by SEQ ID NO: 944)) in NHPs to further enhance their transduction and biodistribution in the central nervous system as well as other tissues, and evolve the AAV capsid variants to provide further cross-species compatibility. Two approaches were used to mature the TTM-001 and TTM-002 capsid sequences in order to randomize and mutate within and around the peptide insert comprised within loop IV of the capsid variant. […] In the first maturation approach, sets of three contiguous amino acids were randomized across the mutagenesis region in the TTM-001 and TTM-002 sequences, which spanned from position 450 to position 466, numbered according to SEQ ID NO: 981 and 982. In the second maturation approach, mutagenic primers were used to introduce point mutations at a low frequency, scattered across the mutagenesis region in the TTM-001 and TTM-002 sequences ranging from position 449 to position 466, numbered according to SEQ ID NO: 981 and 982. AAV capsid variants arising from each maturation approach for TTM-001 and TTM-002 were pooled together, for subsequent testing and characterization in NHPs.
The library of pooled matured AAV capsid variants generated using the first maturation approach and the second maturation approach for the TTM-001 and TTM-002 AAV capsid variants were injected into two NHPs. […] Following RNA recovery and RT-PCR amplification, a systematic NGS enrichment analysis was performed to calculate the fold enrichment ratio relative to an AAV9 control, and the peptides comprised within the variants were identified.
Following the RNA recovery and NGS analysis from the second maturation approach, approximately 680,000 capsid variants were identified. The 680,000 matured capsid variants were then filtered based on samples with a raw virus count greater than 10 and a coefficient of variance (CV) of less than 1, which was calculated for each peptide across the brain samples taken from the two NHPs. […] Using this filtering criteria, this led to approximately 64,000 matured capsid variants.

[1] = NHP DRG, NGS, relative to AAV9 control
[2] = NHP brain, NGS, relative to AAV9 control
[3] = NHP heart, NGS, relative to AAV9 control
[4] = NHP liver DNA, NGS, relative to AAV9 control
[5] = NHP liver RNA, NGS, TTM-001 and TTM-002 matured AAV capsid variants, relative to AAV9 control
[6] = NHP muscle, NGS, relative to AAV9 control

Sequence: KTINGSGSPHSCPQNQQT
- Fold Enrichment relative to AAV9, DRG (NHP) [1]: 0.000 fold
- Fold Enrichment relative to AAV9, Brain (NHP) [2]: 0.000 fold
- Fold Enrichment relative to AAV9, Heart (NHP) [3]: 0.000 fold
- Fold Enrichment relative to AAV9, Liver DNA (NHP) [4]: 1.776 fold
- Fold Enrichment relative to AAV9, Liver RNA (NHP) [5]: 16.701 fold
- Fold Enrichment relative to AAV9, Muscle (NHP) [6]: 0.000 fold

Sequence: KTINYTRSPHSKAQNQQT
- Fold Enrichment relative to AAV9, DRG (NHP) [1]: 0.000 fold
- Fold Enrichment relative to AAV9, Brain (NHP) [2]: 0.000 fold
- Fold Enrichment relative to AAV9, Heart (NHP) [3]: 0.000 fold
- Fold Enrichment relative to AAV9, Liver DNA (NHP) [4]: 0.431 fold
- Fold Enrichment relative to AAV9, Liver RNA (NHP) [5]: 11.514 fold
- Fold Enrichment relative to AAV9, Muscle (NHP) [6]: 0.000 fold

Sequence: KTINGSGSPHSKAQTHRT
- Fold Enrichment relative to AAV9, DRG (NHP) [1]: 0.000 fold
- Fold Enrichment relative to AAV9, Brain (NHP) [2]: 0.000 fold
- Fold Enrichment relative to AAV9, Heart (NHP) [3]: 0.000 fold
- Fold Enrichment relative to AAV9, Liver DNA (NHP) [4]: 2.917 fold
- Fold Enrichment relative to AAV9, Liver RNA (NHP) [5]: 17.290 fold
- Fold Enrichment relative to AAV9, Muscle (NHP) [6]: 0.000 fold

Sequence: KTINCRTSPHSKAQNQQT
- Fold Enrichment relative to AAV9, DRG (NHP) [1]: 0.000 fold
- Fold Enrichment relative to AAV9, Brain (NHP) [2]: 0.000 fold
- Fold Enrichment relative to AAV9, Heart (NHP) [3]: 0.000 fold
- Fold Enrichment relative to AAV9, Liver DNA (NHP) [4]: 1.117 fold
- Fold Enrichment relative to AAV9, Liver RNA (NHP) [5]: 28.301 fold
- Fold Enrichment relative to AAV9, Muscle (NHP) [6]: 0.000 fold

Sequence: KTINGSGSPHSKAKKVQT
- Fold Enrichment relative to AAV9, DRG (NHP) (NGS fold-enrichment, DRG, NHP, relative to AAV9): 0.000 fold
- Fold Enrichment relative to AAV9, Brain (NHP) (NGS fold-enrichment, brain, NHP, relative to AAV9): 0.000 fold
- Fold Enrichment relative to AAV9, Heart (NHP) (NGS fold-enrichment, heart, NHP, relative to AAV9): 0.000 fold
- Fold Enrichment relative to AAV9, Liver DNA (NHP) (NGS fold-enrichment, liver DNA, NHP, relative to AAV9): 3.974 fold
- Fold Enrichment relative to AAV9, Liver RNA (NHP) (NGS fold-enrichment, liver RNA, NHP, relative to AAV9): 10.102 fold
- Fold Enrichment relative to AAV9, Muscle (NHP) (NGS fold-enrichment, muscle, NHP, relative to AAV9): 0.000 fold

Sequence: KTINGSGSPHSKARMYQT
- Fold Enrichment relative to AAV9, DRG (NHP) [1]: 0.000 fold
- Fold Enrichment relative to AAV9, Brain (NHP) [2]: 0.000 fold
- Fold Enrichment relative to AAV9, Heart (NHP) [3]: 0.000 fold
- Fold Enrichment relative to AAV9, Liver DNA (NHP) [4]: 0.313 fold
- Fold Enrichment relative to AAV9, Liver RNA (NHP) [5]: 23.424 fold
- Fold Enrichment relative to AAV9, Muscle (NHP) [6]: 0.000 fold

Sequence: KTINGSGSPHSTCLNQQT
- Fold Enrichment relative to AAV9, DRG (NHP) [1]: 0.000 fold
- Fold Enrichment relative to AAV9, Brain (NHP) [2]: 0.000 fold
- Fold Enrichment relative to AAV9, Heart (NHP) [3]: 0.000 fold
- Fold Enrichment relative to AAV9, Liver DNA (NHP) [4]: 4.762 fold
- Fold Enrichment relative to AAV9, Liver RNA (NHP) [5]: 11.132 fold
- Fold Enrichment relative to AAV9, Muscle (NHP) [6]: 0.000 fold

Sequence: KWLTGSGSPHSKAQNQQT (peptide inserted in AAV capsid)
- Fold Enrichment relative to AAV9, DRG (NHP) [1]: 0.000 fold
- Fold Enrichment relative to AAV9, Brain (NHP) [2]: 0.364 fold
- Fold Enrichment relative to AAV9, Heart (NHP) [3]: 0.000 fold
- Fold Enrichment relative to AAV9, Liver DNA (NHP) [4]: 2.388 fold
- Fold Enrichment relative to AAV9, Liver RNA (NHP) [5]: 26.975 fold
- Fold Enrichment relative to AAV9, Muscle (NHP) [6]: 2578.486 fold

Sequence: KTINGSGSPHSKAQRFKT
- Fold Enrichment relative to AAV9, DRG (NHP) [1]: 0.000 fold
- Fold Enrichment relative to AAV9, Brain (NHP) [2]: 0.000 fold
- Fold Enrichment relative to AAV9, Heart (NHP) [3]: 0.000 fold
- Fold Enrichment relative to AAV9, Liver DNA (NHP) [4]: 0.139 fold
- Fold Enrichment relative to AAV9, Liver RNA (NHP) [5]: 30.363 fold
- Fold Enrichment relative to AAV9, Muscle (NHP) [6]: 0.000 fold

Sequence: KTINGSGSPHSKIRRQQT
- Fold Enrichment relative to AAV9, DRG (NHP) [1]: 0.000 fold
- Fold Enrichment relative to AAV9, Brain (NHP) [2]: 0.000 fold
- Fold Enrichment relative to AAV9, Heart (NHP) [3]: 0.000 fold
- Fold Enrichment relative to AAV9, Liver DNA (NHP) [4]: 1.388 fold
- Fold Enrichment relative to AAV9, Liver RNA (NHP) [5]: 53.528 fold
- Fold Enrichment relative to AAV9, Muscle (NHP) [6]: 0.000 fold

Sequence: KTINGSVSPHCTAQNQQT (peptide inserted in AAV capsid)
- Fold Enrichment relative to AAV9, DRG (NHP) [1]: 0.000 fold
- Fold Enrichment relative to AAV9, Brain (NHP) [2]: 0.000 fold
- Fold Enrichment relative to AAV9, Heart (NHP) [3]: 0.000 fold
- Fold Enrichment relative to AAV9, Liver DNA (NHP) [4]: 2.955 fold
- Fold Enrichment relative to AAV9, Liver RNA (NHP) [5]: 13.502 fold
- Fold Enrichment relative to AAV9, Muscle (NHP) [6]: 0.000 fold

Sequence: KTINGSGSPHLPTQNQQT
- Fold Enrichment relative to AAV9, DRG (NHP) [1]: 0.000 fold
- Fold Enrichment relative to AAV9, Brain (NHP) [2]: 0.000 fold
- Fold Enrichment relative to AAV9, Heart (NHP) [3]: 0.000 fold
- Fold Enrichment relative to AAV9, Liver DNA (NHP) [4]: 3.127 fold
- Fold Enrichment relative to AAV9, Liver RNA (NHP) [5]: 20.704 fold
- Fold Enrichment relative to AAV9, Muscle (NHP) [6]: 0.000 fold
